Measured values: patent publication US7355074B2, “Compounds having aromatic rings and side-chain amide-functionality and a method for transporting monovalent anions across biological membranes using the same” (The University of Maryland, priority 2003, dated 2008)

Tests used:
[1] = 35Cl NMR transport assay; type: biochemical; details: vesicles with NaCl and Co2+ inside, Co2+-free Na2SO4 buffer outside; 2 mol %
Experimental: FIG. 2A illustrates ^35Cl NMR spectra of a suspension of giant vesicles (29 mM EYPC, 100 mM NaCl, 10 mM CoCl2, 10 mM NanH3-nPO4, n=1, 2 pH 5.3) suspended in 75 mM […] buffer (NanH3-nPO4, n=1, 2, pH spectra correspond to a) giant vesicles in the absence of 3, b) giant vesicles after application of 2 mol % 3 in DMSO, c) vesicles after lysis with Triton X-100.
Liposome Preparation for ^35Cl NMR Assays. Egg yolk L-α-phosphatidylcholine (1.0 mg/mL EYPC ethanol solution, 250 μL, […]) was dissolved in a CHCl3/MeOH mixture, the solution was evaporated under reduced pressure and the resulting thin film was dried under high vacuum for 2.5 h. The lipid film was hydrated in 1.0 mL of phosphate buffer (9:1 H2O:D2O, 10 mM sodium phosphate, pH=5.4, 100 mM NaCl) containing 10 mM CoCl2 (^35Cl shift reagent) for 40 min. During hydration, the suspension was submitted to 5 freeze-thaw cycles (liquid nitrogen, water at rt). The giant liposome suspension (1 mL) was submitted to high-pressure extrusion at rt (41 passes through a 5.0 μm polycarbonate membrane). […]
^35Cl NMR Measurements. All ^35Cl NMR spectra were recorded on a Bruker DRX500 instrument operating at 49.0023 MHz for the ^35Cl resonance and chemical shift values are reported in ppm relative to 25 mM NaCl in D2O at 0 ppm (external standard). […]

[2] = intravesicular pH of LUVs experiencing a Cl- gradient (calixarene amides); type: biochemical; details: NaCl-loaded LUVs in isosmotic Na2SO4 buffer
Experimental: FIG. 8 illustrates changes in intravesicular pH upon addition of calixarene tetrabutylamide and calixarene octabutylamide to NaCl^+ loaded vesicles suspended in a sulfate phosphate buffer (emission of HPTS is used to monitor the pH changes in LUVs). At t=60 s, 20 μL of 500 μM of calixarene tetrabutylamide 2 (top trace) or the octabutylamide 3 (bottom trace) was added to 1.95 mL of a LUV suspension to give 1:100 ligand:lipid molar ratio. At t=500 s, 40 μL of 5% Triton X-100 was added. Intravesicular pH values were obtained as a function of the ratio of HPTS emission intensities at 510 nm, when excited at […]. The calibration was performed by measuring the HPTS emission intensities and the pH values of a […] HPTS solution in 10 mM phosphate buffer containing 100 mM NaCl. The calibration equation obtained (pH=1.1684×log (I0I1)+6.9807, r=0.998, where I0 is the emission intensity with excitation at […]) was used to convert the emission intensities into actual pH values.
The pH reached its maximum 250 s after addition of 2 and held constant until the liposomes were lysed with detergent. […] In effect, compound 2 moves […] along with Cl^− down the chloride gradient, consequently building a pH gradient across the membrane. Therefore, NaCl filled vesicles lose Cl^− and H^+ upon addition of 2 and become more alkaline.
Calcein-Release Assay. Calcein-loaded vesicles (100 μL of the stock solution), filled with a saline phosphate buffer (10 mM sodium phosphate, pH 6.4, […] NaCl), were suspended in 1.85 mL of an isoosmotic phosphate sulfate buffer (10 mM sodium phosphate, pH 6.4^−75 mM (Na2SO4) and placed into a fluorimetric cell. HPTS emission at 510 nm was monitored with excitation wavelengths at 403 and 460 nm simultaneously. During the experiment, 20 μL of a 0-500 μM THF solution of the compound of interest was added through an injection port. Intravesicular pH values were obtained as a function of the ratio of HPTS emission intensities at 510 nm, when excited at 403 and 460 nm. […]

Row | Compound | outward Cl− transport (35Cl NMR signal) [1] | change of intravesicular pH / pH gradient formation [2] | time to maximum intravesicular pH after addition [2]
1 | CCCCNC(=O)COc1ccccc1Cc1cccc(Cc2ccccc2OCC(=O)NCCCC)c1OCC(=O)NCCCC [trimer 3, Tris-(N-butyl-2-phenoxyacetamide)] | enhancement of the extravesicular Cl^− peak |  | 
2 | CCCCNC(=O)COc1c2cccc1Cc1cccc(c1OCC(=O)NCCCC)Cc1cccc(c1OCC(=O)NCCCC)Cc1cccc(c1OCC(=O)NCCCC)C2 [calix[4]arene tetrabutylamide 2, Calix[4]arene tetrabutylamide] |  | rapid increase in intravesicular pH | 250 s
